Read-outs that look alike come from different tables or passages of the source. Square brackets hold non-standard residues; d marks the D form. pGlu = O=C1CC[C@@H](C(=O)O)N1
Assays:
[1] = test system: patients who did not conceive; test: Dose finding study: luteal phase serum oestradiol levels; format: in vivo, human
Source text: (§1) Patients suffering from unexplained infertility, or from infertility resulting from mild to moderate endometrioisis, or an infertility resulting from a mild or moderate alteration of their partner sperm, and whom have not conceived despite regular sexual intercourses during a period of one or two years, usually undergo medical assistance. The most often used treatment is ovarian stimulation coupled to an IUI (Hughes G. H. 1997, The effectiveness of ovulation induction and intra-uterine insemination in the treatment of persistent infertility: a meta-analysis. Hum Reprod. 12: 1865-1872).
(§2) A prospective, randomised, parallel groups dose finding study was conducted in this patient population.
(§3) The number and the size of each follicle was recorded.
(§4) Between 12 and 48 hours after triggering ovulation, the patient's partner provided a sperm sample, after 2 to 5 days of abstinence. Motile sperm cells were separated from seminal fluid, dead sperm cells, leucocytes, and cellular debris using a suitable method such as a “swim-up” or a Percol gradient. On that same day, the motile sperm cell suspension was used to perform an intra-uterine insemination with a catheter inserted into the uterine cavity via the cervix. The procedure may be repeated on the next day.

[2] = test system: patients suffering from unexplained infertility, mild to moderate endometrioisis or partner sperm alteration; test: Dose finding study: luteal phase duration and pregnancy outcome after ovarian stimulation and IUI; format: in vivo; details: for Positive pregnancy test: patients positive/total, day 14 of luteal phase; for Clinical pregnancy: patients/total
Source text: as §1, §2, §3, §4

[3] = test system: patients who did not conceive; test: Dose finding study: luteal phase serum progesterone levels; format: in vivo, human
Source text: as §1, §2, §3, §4

[4] = test system: patients in ART treatments; details: cited from earlier work
[5] = test system: patients (hypothalamic amenorrhea); details: nasal administration every 4 hours after IV GnRH induction of ovulation; in half of the patients; cited from earlier work
[6] = Day 0, buserelin 100 μg/2 days IN
[7] = Day 0, buserelin 100 μg/3 days IN
[8] = Day 1, buserelin 100 μg/2 days IN
[9] = Day 1, buserelin 100 μg/3 days IN
[10] = Day 4, buserelin 100 μg/2 days IN
[11] = Day 4, buserelin 100 μg/3 days IN
[12] = Day 7, buserelin 100 μg/2 days IN
[13] = Day 7, buserelin 100 μg/3 days IN
[14] = Day 9, buserelin 100 μg/2 days IN
[15] = Day 9, buserelin 100 μg/3 days IN
[16] = Day 11, buserelin 100 μg/2 days IN
[17] = Day 11, buserelin 100 μg/3 days IN
[18] = Day 11, buserelin 100 μg/day IN
[19] = Day 14, buserelin 100 μg/2 days IN
[20] = Day 14, buserelin 100 μg/3 days IN
[21] = Day 14, buserelin 100 μg/day IN

CCNC(=O)[C@@H]1CCCN1C(=O)[C@H](CCCNC(=N)N)NC(=O)[C@H](CC(C)C)NC(=O)[C@@H](COC(C)(C)C)NC(=O)[C@H](Cc1ccc(O)cc1)NC(=O)[C@H](CO)NC(=O)[C@H](Cc1c[nH]c2ccccc12)NC(=O)[C@H](Cc1cnc[nH]1)NC(=O)[C@@H]1CCC(=O)N1 [Buserelin, <Glu^1-His^2-Trp^3-Ser^4-Tyr^5-D-Ser(t-But)^6-Leu^7-Arg^8-Pro^9-EA (SEQ ID NO: 2)]
Luteal phase serum oestradiol level (mean ± SD) [1, 6]: 247 ± 79 pg/mL | Luteal phase serum oestradiol level (mean ± SD) [1, 7]: 182 ± 76 pg/mL | Luteal phase serum oestradiol level (mean ± SD) ([1]; Day 0, buserelin 100 μg/day IN): 175 ± 071 pg/mL | Luteal phase serum oestradiol level (mean ± SD) [1, 8]: 164 ± 75 pg/mL | Luteal phase serum oestradiol level (mean ± SD) [1, 9]: 325 ± 160 pg/mL | Luteal phase serum oestradiol level (mean ± SD) [1, 10]: 139 ± 77 pg/mL | Luteal phase serum oestradiol level (mean ± SD) [1, 11]: 106 ± 61 pg/mL | Luteal phase serum oestradiol level (mean ± SD) ([1]; Day 4, buserelin 100 μg/day IN): 179 ± 101 pg/mL | Luteal phase serum oestradiol level (mean ± SD) [1, 12]: 70 ± 19 pg/mL | Luteal phase serum oestradiol level (mean ± SD) [1, 13]: 144 ± 118 pg/mL | Luteal phase serum oestradiol level (mean ± SD) ([1]; Day 7, buserelin 100 μg/day IN): 163 ± 30 pg/mL | Luteal phase serum oestradiol level (mean ± SD) [1, 14]: 65 ± 15 pg/mL | Luteal phase serum oestradiol level (mean ± SD) [1, 15]: 109 ± 88 pg/mL | Luteal phase serum oestradiol level (mean ± SD) ([1]; Day 9, buserelin 100 μg/day IN): 232 ± 77 pg/mL | Luteal phase serum oestradiol level (mean ± SD) [1, 16]: 75 ± 4 pg/mL | Luteal phase serum oestradiol level (mean ± SD) [1, 17]: 123 ± 61 pg/mL | Luteal phase serum oestradiol level (mean ± SD) [1, 18]: 200 ± 30 pg/mL | Luteal phase serum oestradiol level (mean ± SD) [1, 19]: 124 ± 68 pg/mL | Luteal phase serum oestradiol level (mean ± SD) [1, 20]: 82 ± 31 pg/mL | Luteal phase serum oestradiol level (mean ± SD) [1, 21]: 154 ± 85 pg/mL | luteal support, summary of tables 1-3 ([2]; buserelin 100 μg IN once a day for 14 days, compared with the other groups): a longer luteal phase, higher progesterone and oestradiol levels in late luteal phase and a trend toward a higher clinical pregnancy rate | Positive pregnancy test ([2]; buserelin 100 μg/2 days IN): 2/6 | Clinical pregnancy ([2]; buserelin 100 μg/2 days IN): 1/6 | Positive pregnancy test ([2]; buserelin 100 μg/3 days IN): 1/5 | Clinical pregnancy ([2]; buserelin 100 μg/3 days IN): 0/5 | Positive pregnancy test ([2]; buserelin 100 μg/day IN): 2/6 | Clinical pregnancy ([2]; buserelin 100 μg/day IN): 2/6 | Luteal phase duration (mean ± SD) ([2]; buserelin 200 μg IN trigger, then 100 μg/day IN for 14 days, n=6): 15.3 ± 0.5 days | adverse local reactions of intra-nasal administration ([2]; self-administered intra-nasal buserelin 100 μg): did not carry the risk of adverse local reactions such as pain and abces | Luteal phase serum progesterone level (mean ± SD) [3, 6]: 0.9 ± 0.7 ng/mL | Luteal phase serum progesterone level (mean ± SD) [3, 7]: 0.7 ± 0.3 ng/mL | Luteal phase serum progesterone level (mean ± SD) ([3]; Day 0, buserelin 100 μg/day IN): 1.1 ± 0.4 ng/mL | Luteal phase serum progesterone level (mean ± SD) [3, 8]: 1.3 ± 0.8 ng/mL | Luteal phase serum progesterone level (mean ± SD) [3, 9]: 0.9 ± 0.2 ng/mL | Luteal phase serum progesterone level (mean ± SD) ([3]; Day 1, buserelin 100 μg/day IN): 1.2 ± 0.3 ng/mL | Luteal phase serum progesterone level (mean ± SD) [3, 10]: 7.6 ± 3.2 ng/mL | Luteal phase serum progesterone level (mean ± SD) [3, 11]: 5.1 ± 2.0 ng/mL | Luteal phase serum progesterone level (mean ± SD) ([3]; Day 4, buserelin 100 μg/day IN): 6.2 ± 2.3 ng/mL | Luteal phase serum progesterone level (mean ± SD) [3, 12]: 11.7 ± 4.6 ng/mL | Luteal phase serum progesterone level (mean ± SD) [3, 13]: 11.5 ± 3.6 ng/mL | Luteal phase serum progesterone level (mean ± SD) ([3]; Day 7, buserelin 100 μg/day IN): 13.9 ± 2.9 ng/mL | Luteal phase serum progesterone level (mean ± SD) [3, 14]: 8.2 ± 6.4 ng/mL | Luteal phase serum progesterone level (mean ± SD) [3, 15]: 10.8 ± 6.6 ng/mL | Luteal phase serum progesterone level (mean ± SD) ([3]; Day 9, buserelin 100 μg/day IN): 16.2 ± 7.5 ng/mL | Luteal phase serum progesterone level (mean ± SD) [3, 16]: 8.3 ± 6.5 ng/mL | Luteal phase serum progesterone level (mean ± SD) [3, 17]: 10.0 ± 3.7 ng/mL | Luteal phase serum progesterone level (mean ± SD) [3, 18]: 14.1 ± 3.3 ng/mL | Luteal phase serum progesterone level (mean ± SD) [3, 19]: 5.8 ± 4.7 ng/mL | Luteal phase serum progesterone level (mean ± SD) [3, 20]: 3.3 ± 2.4 ng/mL | Luteal phase serum progesterone level (mean ± SD) [3, 21]: 8.4 ± 4.3 ng/mL

CC(=O)[C@H]1CC[C@H]2[C@@H]3CCC4=CC(=O)CC[C@]4(C)[C@H]3CC[C@]12C [progesterone]
relative efficacy of IM progesterone vs vaginal progesterone ([4]; C.I. of 1.02-1.75, in favor of the IM route (p<0.05)): 1.33 | odds to obtain a pregnancy compared to no luteal support ([4]; progesterone IM, CI: 1.36-4.27, p<0.05): 2.38 | odds to obtain a pregnancy compared to no luteal support ([4]; vaginal route, C.I. of 0.95-4.67 (NS)): 2.11

<Glu^1-His^2-Trp^3-Ser^4-Tyr^5-His^6-Leu^7-Arg^8-Pro^9-Gly^10-NH2 (SEQ ID NO: 1) ([pGlu]HWSYHLRPG-NH2; SMILES CC(C)C[C@H](NC(=O)[C@H](Cc1c[nH]cn1)NC(=O)[C@H](Cc1ccc(O)cc1)NC(=O)[C@H](CO)NC(=O)[C@H](Cc1c[nH]c2ccccc12)NC(=O)[C@H](Cc1c[nH]cn1)NC(=O)[C@@H]1CCC(=O)N1)C(=O)N[C@@H](CCCNC(=N)N)C(=O)N1CCC[C@H]1C(=O)NCC(N)=O; listed as Homo sapiens) [native GnRH, synthetic, native GnRH decapeptide]
support of the luteal phase [5]: completely ineffective

Reference: patent US7671027B2, “Use of GnRH agonists to support the luteal phase during infertility treatment” (PregLem S.A., priority 2002, dated 2010)
